According to patent publication US20260132127A1, “NOVEL SPIRO COMPOUND” (MITSUBISHI TANABE PHARMA CORPORATION, priority 2021, published 2026):
Each block holds one compound with its values, some of them ahead of it.

Target: T1, human TRH-DE (Homo sapiens, UniProt Q9UKU6)
T1 construct: expressed in transfected cells; host or cells: Expi 293 cells (transient expression), membrane fraction
T1 sequence (Q9UKU6 1-1069): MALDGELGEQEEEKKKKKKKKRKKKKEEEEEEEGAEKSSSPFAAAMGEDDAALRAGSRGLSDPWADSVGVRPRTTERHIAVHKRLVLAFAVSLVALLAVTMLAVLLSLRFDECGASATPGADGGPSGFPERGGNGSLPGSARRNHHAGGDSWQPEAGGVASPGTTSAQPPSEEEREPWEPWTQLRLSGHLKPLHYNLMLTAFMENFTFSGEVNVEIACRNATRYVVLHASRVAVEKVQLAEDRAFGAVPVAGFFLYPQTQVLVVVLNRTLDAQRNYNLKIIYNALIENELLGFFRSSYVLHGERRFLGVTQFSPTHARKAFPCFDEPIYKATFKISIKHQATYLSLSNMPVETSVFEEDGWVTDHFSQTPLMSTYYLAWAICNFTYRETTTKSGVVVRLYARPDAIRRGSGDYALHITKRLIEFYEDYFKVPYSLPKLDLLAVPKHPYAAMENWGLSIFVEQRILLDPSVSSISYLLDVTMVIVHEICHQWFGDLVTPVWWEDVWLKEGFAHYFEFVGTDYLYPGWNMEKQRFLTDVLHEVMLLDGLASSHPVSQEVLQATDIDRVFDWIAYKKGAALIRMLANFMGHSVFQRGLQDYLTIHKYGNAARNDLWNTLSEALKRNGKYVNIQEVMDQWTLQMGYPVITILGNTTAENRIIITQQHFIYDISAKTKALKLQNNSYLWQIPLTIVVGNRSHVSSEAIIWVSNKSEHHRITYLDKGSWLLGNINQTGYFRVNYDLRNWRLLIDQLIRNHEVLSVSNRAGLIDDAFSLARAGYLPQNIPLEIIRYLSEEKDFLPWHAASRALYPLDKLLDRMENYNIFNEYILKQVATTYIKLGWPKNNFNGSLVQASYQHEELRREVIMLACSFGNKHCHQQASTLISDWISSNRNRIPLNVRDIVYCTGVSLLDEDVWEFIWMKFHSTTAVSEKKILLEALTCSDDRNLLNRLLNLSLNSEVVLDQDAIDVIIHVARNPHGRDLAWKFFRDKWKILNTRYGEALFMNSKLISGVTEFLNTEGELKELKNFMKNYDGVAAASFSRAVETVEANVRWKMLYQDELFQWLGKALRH
Test: TRH-DE inhibition test (RapidFire MS measurement of product Cyclo (His-Pro))
Format: biochemical
Conditions: membrane fraction of Expi 293 cells expressing human TRH-DE; 10 μM TRH substrate; room temperature, 2 hours; 16-point concentration test
In short: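 Inhibition derived from product/internal-standard ratios of Cyclo(His-Pro), quantified by RapidFire triple-quadrupole MS after acetonitrile:methanol quench, with IC50 fitted over 16 concentrations. Enzyme source: membranes of Expi 293 cells transiently expressing human TRH-DE, 4 μg/ml, pH 7.4 phosphate buffer. Incubation with 10 μM substrate ran 2 h at room temperature.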

SMILES: CCCN(C(=O)c1cccnc1OCC)C1CC2(C1)CN(S(=O)(=O)c1cccc(C)c1)C2 [Example 424]
IC50: 795 nM

SMILES: CCCN(C(=O)c1ccccc1OC)C1CC2(C1)CN(S(=O)(=O)c1cccc(C)c1)C2 [Example 425]
IC50: 860 nM

SMILES: CCCN(C(=O)c1ccnc2[nH]cnc12)C1CC2(C1)CN(S(=O)(=O)c1cc(C)ccc1F)C2 [Example 426]
IC50: 95 nM

SMILES: CCCN(C(=O)c1cccnc1N(C)C)C1CC2(C1)CN(S(=O)(=O)c1cc(C)ccc1F)C2 [Example 427]
IC50: 52 nM

SMILES: CCCN(C(=O)c1ccnc2[nH]ccc12)C1CC2(C1)CN(S(=O)(=O)c1cc(C)ccc1F)C2 [Example 428]
IC50: 14 nM

SMILES: CCCN(C(=O)c1cccnc1NC1CC1)C1CC2(C1)CN(S(=O)(=O)c1cc(C)ccc1F)C2 [Example 429]
IC50: 14 nM

SMILES: CCCN(C(=O)c1cccc2[nH]c(C)nc12)C1CC2(C1)CN(S(=O)(=O)c1cc(C)ccc1F)C2 [Example 430]
IC50: 48 nM

SMILES: CCCN(C(=O)c1nc2ccccc2[nH]1)C1CC2(C1)CN(S(=O)(=O)c1cc(C)ccc1F)C2 [Example 431]
IC50: 347 nM

SMILES: CC1CCCNC(=O)N1C1CC2(C1)CN(S(=O)(=O)c1ccccc1F)C2 (stereo not shown) [Example 432, 1-[2-(2-fluorophenyl)sulfonyl-2-azaspiro[3.3]heptan-6-yl]-7-methyl-1,3-diazepan-2-one]
IC50: 344 nM

SMILES: CC1CCOC(=O)N1C1CC2(C1)CN(S(=O)(=O)c1ccccc1F)C2 (stereo not shown) [Example 433, 3-[2-(2-fluorophenyl)sulfonyl-2-azaspiro[3.3]heptan-6-yl]-4-methyl-1,3-oxazinan-2-one]
IC50: 868 nM

SMILES: CC1CCNC(=O)N1C1CC2(C1)CN(S(=O)(=O)c1ccccc1F)C2 (stereo not shown) [Example 434, 1-[2-(2-fluorophenyl)sulfonyl-2-azaspiro[3.3]heptan-6-yl]-6-methyl-1,3-diazinan-2-one]
IC50: 279 nM

SMILES: C[C@@H]1CNC(=O)N1C1CC2(C1)CN(S(=O)(=O)c1ccccc1F)C2 [Example 435, (5R)-1-[2-(2-fluorophenyl)sulfonyl-2-azaspiro[3.3]heptan-6-yl]-5-methylimidazolidin-2-one]
IC50: 492 nM

SMILES: CC1CSCC(=O)N1C1CC2(C1)CN(S(=O)(=O)c1ccccc1F)C2 (stereo not shown) [Example 441, 4-[2-(2-fluorophenyl)sulfonyl-2-azaspiro[3.3]heptan-6-yl]-5-methylthiomorpholin-3-one]
IC50: 247 nM

SMILES: C[C@@H]1CCNCC(=O)N1C1CC2(C1)CN(S(=O)(=O)c1ccccc1F)C2 [Example 442, (7R)-1-[2-(2-fluorophenyl)sulfonyl-2-azaspiro[3.3]heptan-6-yl]-7-methyl-1,4-diazepan-2-one]
IC50: 551 nM

SMILES: C[C@@H]1CCN(C2CCOCC2)CC(=O)N1C1CC2(C1)CN(S(=O)(=O)c1ccccc1F)C2 [Example 447]
IC50: 403 nM

SMILES: C[C@@H]1CCN(CCC(F)(F)F)CC(=O)N1C1CC2(C1)CN(S(=O)(=O)c1ccccc1F)C2 [Example 448]
IC50: 474 nM

SMILES: CC1CCOCC(=O)N1C1CC2(C1)CN(S(=O)(=O)c1ccccc1F)C2 (stereo not shown) [Example 457, 4-[2-(2-fluorophenyl)sulfonyl-2-azaspiro[3.3]heptan-6-yl]-5-methyl-1,4-oxazepan-3-one]
IC50: 171 nM

SMILES: C[C@@H]1COCC(=O)N1C1CC2(C1)CN(S(=O)(=O)c1ccccc1F)C2 [Example 458, (5R)-4-[2-(2-fluorophenyl)sulfonyl-2-azaspiro[3.3]heptan-6-yl]-5-methylmorpholin-3-one]
IC50: 280 nM

SMILES: C[C@@H]1COCCC(=O)N1C1CC2(C1)CN(S(=O)(=O)c1ccccc1F)C2 [Example 460, (3R)-4-[2-(2-fluorophenyl)sulfonyl-2-azaspiro[3.3]heptan-6-yl]-3-methyl-1,4-oxazepan-5-one]
IC50: 424 nM

The next lines start with the values.

IC50: 157 nM
SMILES: C[C@@H]1CCN(CC2CC2)CC(=O)N1C1CC2(C1)CN(S(=O)(=O)c1ccccc1F)C2 [Example 443, (7R)-4-(cyclopropylmethyl)-1-[2-(2-fluorophenyl)sulfonyl-2-azaspiro[3.3]heptan-6-yl]-7-methyl-1,4-diazepan-2-one]

IC50: 789 nM
SMILES: C[C@@H]1CCN(C)CC(=O)N1C1CC2(C1)CN(S(=O)(=O)c1ccccc1F)C2 [Example 444]

IC50: 171 nM
SMILES: C[C@@H]1CCN(Cc2ccccc2)CC(=O)N1C1CC2(C1)CN(S(=O)(=O)c1ccccc1F)C2 [Example 446]

IC50: 65 nM
SMILES: C[C@@H]1CCN(C(=O)c2cc[nH]n2)CC(=O)N1C1CC2(C1)CN(S(=O)(=O)c1ccccc1F)C2 [Example 449]

IC50: 81 nM
SMILES: C[C@@H]1CCN(C(=O)c2cccs2)CC(=O)N1C1CC2(C1)CN(S(=O)(=O)c1ccccc1F)C2 [Example 450]

IC50: 76 nM
SMILES: C[C@@H]1CCN(C(=O)c2ccc3ccccc3c2)CC(=O)N1C1CC2(C1)CN(S(=O)(=O)c1ccccc1F)C2 [Example 451]

IC50: 88 nM
SMILES: C[C@@H]1CCN(C(=O)C2(F)CC2)CC(=O)N1C1CC2(C1)CN(S(=O)(=O)c1ccccc1F)C2 [Example 452]

IC50: 348 nM
SMILES: COCCC(=O)N1CC[C@@H](C)N(C2CC3(C2)CN(S(=O)(=O)c2ccccc2F)C3)C(=O)C1 [Example 453]

IC50: 70 nM
SMILES: C[C@@H]1CCN(C(=O)c2ccccc2)CC(=O)N1C1CC2(C1)CN(S(=O)(=O)c1ccccc1F)C2 [Example 454]

IC50: 291 nM
SMILES: C[C@@H]1CCN(S(C)(=O)=O)CC(=O)N1C1CC2(C1)CN(S(=O)(=O)c1ccccc1F)C2 [Example 455, (7R)-1-[2-(2-fluorophenyl)sulfonyl-2-azaspiro[3.3]heptan-6-yl]-7-methyl-4-methylsulfonyl-1,4-diazepan-2-one]

IC50: 90 nM
SMILES: C[C@@H]1CCN(c2ccccn2)CC(=O)N1C1CC2(C1)CN(S(=O)(=O)c1ccccc1F)C2 [Example 456, (7R)-1-[2-(2-fluorophenyl)sulfonyl-2-azaspiro[3.3]heptan-6-yl]-7-methyl-4-pyridin-2-yl-1,4-diazepan-2-one]

IC50: 176 nM
SMILES: CC1CCCCC(=O)N1C1CC2(C1)CN(S(=O)(=O)c1ccccc1F)C2 (stereo not shown) [Example 459, 1-[2-(2-fluorophenyl)sulfonyl-2-azaspiro[3.3]heptan-6-yl]-7-methylazepan-2-one]
